Reference: the Kinase Knowledgebase extract (Sharma et al. 2016)
pEC50, pIC50: −log10 of the molar value. “And” between values parts separate entries of the source, which are not always exact repeats. Equal entries are not always repeated.

Each compound was assayed against EGFR (human) (UniProt P00533) (assay: not given). Conditions: hn5.
Sequence of EGFR (human) (P00533 whole entry, looked up): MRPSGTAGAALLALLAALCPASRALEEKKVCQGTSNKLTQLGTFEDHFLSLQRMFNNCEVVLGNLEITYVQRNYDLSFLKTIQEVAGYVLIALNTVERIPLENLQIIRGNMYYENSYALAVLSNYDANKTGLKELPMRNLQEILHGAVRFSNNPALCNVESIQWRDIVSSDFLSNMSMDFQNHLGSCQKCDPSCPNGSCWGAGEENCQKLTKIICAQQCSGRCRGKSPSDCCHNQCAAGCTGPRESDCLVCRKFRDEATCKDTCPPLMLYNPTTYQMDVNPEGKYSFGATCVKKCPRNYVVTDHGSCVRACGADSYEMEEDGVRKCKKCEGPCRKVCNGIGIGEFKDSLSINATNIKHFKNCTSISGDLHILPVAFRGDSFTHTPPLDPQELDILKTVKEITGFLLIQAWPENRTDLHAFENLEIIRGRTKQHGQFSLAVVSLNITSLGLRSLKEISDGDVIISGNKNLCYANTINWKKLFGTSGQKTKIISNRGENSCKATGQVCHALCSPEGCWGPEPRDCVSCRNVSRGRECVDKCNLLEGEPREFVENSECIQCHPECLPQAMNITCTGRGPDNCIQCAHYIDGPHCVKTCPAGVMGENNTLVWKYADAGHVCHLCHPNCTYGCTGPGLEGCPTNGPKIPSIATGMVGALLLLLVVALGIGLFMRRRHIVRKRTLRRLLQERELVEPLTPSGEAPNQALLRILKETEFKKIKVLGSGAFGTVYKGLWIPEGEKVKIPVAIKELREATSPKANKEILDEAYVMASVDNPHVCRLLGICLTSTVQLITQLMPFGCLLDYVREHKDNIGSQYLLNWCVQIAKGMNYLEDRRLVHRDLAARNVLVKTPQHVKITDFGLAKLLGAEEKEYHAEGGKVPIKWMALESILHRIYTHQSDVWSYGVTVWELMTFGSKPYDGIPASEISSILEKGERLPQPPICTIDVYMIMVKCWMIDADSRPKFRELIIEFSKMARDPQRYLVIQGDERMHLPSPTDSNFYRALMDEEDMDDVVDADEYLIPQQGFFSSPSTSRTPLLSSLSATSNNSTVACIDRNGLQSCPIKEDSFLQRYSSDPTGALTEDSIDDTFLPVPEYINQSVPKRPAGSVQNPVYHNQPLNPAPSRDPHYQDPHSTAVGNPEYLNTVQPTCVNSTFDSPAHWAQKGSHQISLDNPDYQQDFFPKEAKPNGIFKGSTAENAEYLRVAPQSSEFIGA

| SMILES | pIC50 |
| --- | --- |
| CS(=O)(=O)CCNCc1nc(-c2ccc3ncnc(Nc4ccc5c(cnn5Cc5ccccc5)c4)c3c2)cs1 | 6.96 |
| CS(=O)(=O)CCNCc1nc(-c2ccc3ncnc(Nc4ccc(OCc5ccccc5)c(Cl)c4)c3c2)cs1 | 6.64 |

The compounds below were run against PIK3CB;PIK3CG;PIK3CD;PIK3CA (human) (UniProt P48736) (assay: Inhibition of PIK3CA/PIK3CB/PIK3CD/PIK3CG Kinase Activity). Conditions: not given.

| SMILES | pIC50 |
| --- | --- |
| C[C@H](Nc1nc(N)ncc1Cl)c1cc2cccc(Cl)c2nc1-c1ccccn1 | 6.98 |
| COc1c(Cl)ncnc1NCc1cc2cccc(Cl)c2nc1-c1ccccc1 | 6.14 |
| Cc1cccc2cc(CNc3ccnc(C(N)=O)c3)c(-c3ccccc3Cl)nc12 | 4.82 |
| Nc1ncc(F)c(NCc2cc3cccc(Cl)c3nc2-c2ccccc2Cl)n1 | 6.04 |
| Fc1cnc(Cl)nc1NCc1cc2cccc(Cl)c2nc1-c1ccccc1Cl | 5.49 |

These compounds were tested against EGFR (Human), P00533 [T790M/L858R] (assay: not given). Conditions: not given.
Sequence of EGFR (Human), P00533 [T790M/L858R] (P00533 whole entry T790M/L858R, looked up): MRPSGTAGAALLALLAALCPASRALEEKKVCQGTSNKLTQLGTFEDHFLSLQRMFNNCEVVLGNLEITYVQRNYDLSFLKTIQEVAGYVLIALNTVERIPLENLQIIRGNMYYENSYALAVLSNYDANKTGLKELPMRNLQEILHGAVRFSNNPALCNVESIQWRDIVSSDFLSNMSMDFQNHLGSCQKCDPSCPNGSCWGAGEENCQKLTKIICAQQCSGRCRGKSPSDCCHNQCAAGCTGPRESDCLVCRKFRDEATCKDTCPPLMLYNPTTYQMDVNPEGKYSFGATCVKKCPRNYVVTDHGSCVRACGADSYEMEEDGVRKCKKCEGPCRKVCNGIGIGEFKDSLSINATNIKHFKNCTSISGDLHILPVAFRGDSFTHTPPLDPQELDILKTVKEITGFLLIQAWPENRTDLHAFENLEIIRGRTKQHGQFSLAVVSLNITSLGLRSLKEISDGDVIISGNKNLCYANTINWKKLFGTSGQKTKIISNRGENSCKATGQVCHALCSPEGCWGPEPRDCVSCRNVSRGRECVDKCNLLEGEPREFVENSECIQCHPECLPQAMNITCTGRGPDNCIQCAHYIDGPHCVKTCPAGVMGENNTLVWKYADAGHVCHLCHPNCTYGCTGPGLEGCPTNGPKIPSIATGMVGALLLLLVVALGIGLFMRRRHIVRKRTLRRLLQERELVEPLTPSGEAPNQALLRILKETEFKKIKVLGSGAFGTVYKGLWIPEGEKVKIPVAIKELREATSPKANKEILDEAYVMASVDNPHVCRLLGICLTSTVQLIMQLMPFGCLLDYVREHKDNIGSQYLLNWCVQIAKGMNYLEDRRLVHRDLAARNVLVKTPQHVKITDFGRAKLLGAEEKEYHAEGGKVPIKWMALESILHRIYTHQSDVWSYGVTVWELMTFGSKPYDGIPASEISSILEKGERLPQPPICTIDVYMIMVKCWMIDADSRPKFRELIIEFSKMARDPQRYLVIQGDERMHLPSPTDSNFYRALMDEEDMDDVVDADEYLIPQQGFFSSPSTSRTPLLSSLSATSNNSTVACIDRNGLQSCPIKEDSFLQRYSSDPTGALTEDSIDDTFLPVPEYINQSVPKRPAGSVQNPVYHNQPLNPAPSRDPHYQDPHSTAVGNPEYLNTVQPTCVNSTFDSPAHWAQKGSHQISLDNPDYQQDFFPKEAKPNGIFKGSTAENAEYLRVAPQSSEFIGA

| SMILES | pIC50 |
| --- | --- |
| C=CC(=O)Nc1cccc(Nc2nc(Nc3cn(C)nc3C)ncc2Cl)n1 | 7.00 to 8.00 |

Each compound was assayed against PIK3CA (human) (UniProt P42336) (assay: Inhibition of PIK3CA Kinase Activity). Conditions: not given.

| SMILES | pIC50 |
| --- | --- |
| COCCn1c(Cc2nc(N3CCOCC3)cc(=O)[nH]2)nc2ccccc21 | < 5.00 |

What follows are compounds tested against MAPK14 (UniProt Q16539) (assay: not given). Conditions: not given.
Sequence of MAPK14 (Q16539 whole entry, looked up): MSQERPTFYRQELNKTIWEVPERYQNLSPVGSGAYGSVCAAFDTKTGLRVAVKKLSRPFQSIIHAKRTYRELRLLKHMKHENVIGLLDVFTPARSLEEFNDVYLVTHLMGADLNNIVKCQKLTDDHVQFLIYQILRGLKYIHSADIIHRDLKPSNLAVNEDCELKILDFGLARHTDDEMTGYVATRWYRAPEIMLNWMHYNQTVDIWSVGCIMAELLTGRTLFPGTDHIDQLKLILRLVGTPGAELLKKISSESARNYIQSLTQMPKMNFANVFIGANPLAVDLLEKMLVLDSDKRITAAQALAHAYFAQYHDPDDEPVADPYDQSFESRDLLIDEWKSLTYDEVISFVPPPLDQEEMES

| SMILES | inhibition [µM] |
| --- | --- |
| Fc1ccc(-c2ncn(C3CCNCC3)c2-c2ccnc(Sc3ccccc3)c2)cc1 | < 50 |
| Fc1ccc(Oc2cc(-c3c(-c4ccc(F)cc4)ncn3C3CCNCC3)ccn2)cc1 | < 50 |

The compounds below were run against MAPK14 (human) (UniProt Q16539) (assay: Inhibition of Doubly Phosphorylated MAPK14 Kinase Activity (Biochemical Assay)). Conditions: not given.
Sequence of MAPK14 (human) (Q16539 whole entry, looked up): as above

| SMILES | pIC50 |
| --- | --- |
| NC(=O)Cc1cccc(-n2nc(-c3cccc(F)c3)cc2NC(=O)Nc2cccc(Cl)c2Cl)c1 | 7.68 |
| NC(=O)Cc1cccc(-n2nc(-c3cccc(Cl)c3)cc2NC(=O)Nc2cccc(Cl)c2Cl)c1 | 7.24 |
| NC(=O)Cc1cccc(-n2nc(-c3ccccc3)cc2NC(=O)Nc2cccc(Cl)c2Cl)c1 | 7.92 |
| Cc1ccsc1-c1cc(NC(=O)Nc2cccc(Cl)c2Cl)n(-c2cccc(CC(N)=O)c2)n1 | 7.07 |
| NC(=O)Cc1cccc(-n2nc(-c3ccccc3F)cc2NC(=O)Nc2cccc(Cl)c2Cl)c1 | 8.00 |

What follows are compounds tested against EGFR (UniProt P00533) (assay: not given). Conditions: not given.
Sequence of EGFR (P00533 whole entry, looked up): as the sequence (P00533 whole entry, looked up) above

| SMILES | pIC50 |
| --- | --- |
| O=C1CNCCN(Cc2ccn3ncnc(Nc4ccc5c(cnn5Cc5cccc(F)c5)c4)c23)C1 | 7.11 |
| Cc1cn2ncnc(Nc3ccc4c(cnn4Cc4cccc(F)c4)c3)c2c1CN1CCCNCC1 | 6.89 |
| COc1cn2ncnc(Nc3ccc4c(cnn4Cc4cccc(F)c4)c3)c2c1CN1CCCNCC1 | 6.72 |
| COC(=O)C1CCN(Cc2ccn3ncnc(Nc4ccc5c(cnn5Cc5cccc(F)c5)c4)c23)CC1 | < 6.00 |
| Cc1ccn2ncnc(Nc3ccc4c(cnn4Cc4cccc(F)c4)c3)c12 | 7.09 |

These compounds were tested against PIK3CD (Human) (UniProt O00329) (assay: Inhibition of PIK3CD Kinase Activity). Conditions: not given.

| SMILES | pIC50 |
| --- | --- |
| C[C@H](Nc1nc(N)ncc1Cl)c1cc2cccc(Cl)c2nc1-c1ccccn1 | 6.98 |

These compounds were tested against MAPK14 (human) (UniProt Q16539) (assay: Inhibition of MAPK14 Kinase Activity). Conditions: not given.

| SMILES | pIC50 |
| --- | --- |
| CCC(C)N(C)c1nc(Nc2cc(C(N)=O)ccc2C)nc(N[C@H]2CCNC2)n1 (stereo partly specified) | 7.55 |
| Cc1ccc(C(N)=O)cc1Nc1nc(N[C@H]2CCNC2)nc(N(C)C2CCCCC2)n1 | 6.60 |

These compounds were tested on ERBB2;PIK3CA (human), P42336 [Assessment of Cell Proliferation in MCF7.1 Cells Expressed by ERBB2/ PI3K(E545K)] (assay: Assessment of Cell Proliferation in MCF7.1 Cells Expressed by ERBB2/ PI3K(E545K)). Conditions: not given.
Sequence of ERBB2;PIK3CA (human), P42336 [Assessment of Cell Proliferation in MCF7.1 Cells Expressed by ERBB2/ PI3K(E545K)] (P42336 whole entry, looked up, stated change not applied): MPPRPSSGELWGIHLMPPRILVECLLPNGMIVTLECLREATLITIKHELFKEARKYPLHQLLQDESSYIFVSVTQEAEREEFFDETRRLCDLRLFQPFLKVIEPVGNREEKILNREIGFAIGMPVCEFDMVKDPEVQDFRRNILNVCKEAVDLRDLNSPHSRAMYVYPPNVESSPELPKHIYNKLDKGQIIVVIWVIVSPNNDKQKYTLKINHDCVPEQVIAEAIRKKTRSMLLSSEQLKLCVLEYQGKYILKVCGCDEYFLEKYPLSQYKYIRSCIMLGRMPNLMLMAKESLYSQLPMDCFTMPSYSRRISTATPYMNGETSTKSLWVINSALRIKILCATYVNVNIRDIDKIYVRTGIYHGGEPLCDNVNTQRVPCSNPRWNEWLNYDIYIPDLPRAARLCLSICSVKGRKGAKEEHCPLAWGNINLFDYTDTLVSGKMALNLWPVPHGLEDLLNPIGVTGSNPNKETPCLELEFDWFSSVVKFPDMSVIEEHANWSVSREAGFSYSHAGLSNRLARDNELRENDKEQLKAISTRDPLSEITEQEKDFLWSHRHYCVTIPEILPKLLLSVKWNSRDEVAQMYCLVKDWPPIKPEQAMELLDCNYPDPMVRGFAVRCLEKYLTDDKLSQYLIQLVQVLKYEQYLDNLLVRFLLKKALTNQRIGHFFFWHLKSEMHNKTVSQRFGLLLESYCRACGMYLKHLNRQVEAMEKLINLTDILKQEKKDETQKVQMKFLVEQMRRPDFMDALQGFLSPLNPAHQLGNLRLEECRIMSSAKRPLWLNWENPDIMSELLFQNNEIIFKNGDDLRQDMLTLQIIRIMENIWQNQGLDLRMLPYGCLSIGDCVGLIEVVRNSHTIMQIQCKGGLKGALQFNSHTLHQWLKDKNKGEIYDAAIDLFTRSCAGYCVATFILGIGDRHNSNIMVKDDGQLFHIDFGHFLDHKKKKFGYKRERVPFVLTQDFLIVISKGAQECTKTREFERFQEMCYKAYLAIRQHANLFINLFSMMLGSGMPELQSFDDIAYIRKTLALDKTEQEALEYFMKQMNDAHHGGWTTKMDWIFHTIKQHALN

| SMILES | pEC50 |
| --- | --- |
| CS(=O)(=O)c1cccc(-c2cc3nc(-c4cnc(N)nc4)nc(N4CCOCC4)c3s2)c1 | 7.40 and 7.48 |
| CC(=O)N(C)Cc1cc2nc(-c3cnc(N)nc3)nc(N3CCOCC3)c2s1 | 6.72 and 6.73 |
| CC(C)(N)c1cc2nc(-c3cnc(N)nc3)nc(N3CCOCC3)c2s1 | 6.54 |
| CN(Cc1cc2nc(-c3cnc(N)nc3)nc(N3CCOCC3)c2s1)S(C)(=O)=O | 6.77 |
| Nc1ncc(-c2nc(N3CCOCC3)c3sccc3n2)cn1 | 6.37 |

Each compound was assayed against EGFR (human) (UniProt P00533) (assay: not given). Conditions: not given.

| SMILES | pIC50 |
| --- | --- |
| C=C=CCOc1cc2c(Nc3cccc(Cl)c3)ncnc2cc1OC | 7.77 |
| C=C=CCCCOc1cc2c(Nc3cccc(Cl)c3)ncnc2cc1OC | 7.55 |
| C=C=CCCCCOc1cc2c(Nc3ccc(F)c(Cl)c3)ncnc2cc1OC | 7.18 |
| C=C=CCOc1cc2c(Nc3ccc(F)c(Cl)c3)ncnc2cc1OC | 7.62 |

Each compound was assayed against MAPK14 (murine) (assay: Inhibition of MAPK14 Kinase Assay). Conditions: not given.

| SMILES | pIC50 |
| --- | --- |
| COc1ccc(C(=O)N2CCC(Cc3ccc(NC(=O)Nc4cc(C(C)(C)C)nn4-c4ccc(C)cc4)cc3)CC2)c(OC)c1 | 6.64 |
| COc1ccc(C(=O)N2CCC(Cc3cccc(NC(=O)Nc4cc(C(C)(C)C)nn4-c4ccc(C)cc4)c3)CC2)c(OC)c1 | 6.67 |
| COc1ccc(C(=O)N2CCC(Cc3ccccc3NC(=O)Nc3cc(C(C)(C)C)nn3-c3ccc(C)cc3)CC2)c(OC)c1 | 6.30 |
| COc1ccc(C(=O)N2C3CCC2CC(Cc2ccc(NC(=O)Nc4cc(C(C)(C)C)nn4-c4ccc(C)cc4)cc2)C3)c(OC)c1 (stereo unspecified) | 5.93 |
| COc1ccc(C(=O)N2C3CCC2CC(Cc2ccccc2NC(=O)Nc2cc(C(C)(C)C)nn2-c2ccc(C)cc2)C3)c(OC)c1 (stereo unspecified) | 5.17 |

Biological target: EGFR (human) (UniProt P00533)
Test: not given
Conditions: not given
Remark: another data set of the same source

| SMILES | pIC50 |
| --- | --- |
| COc1cc2ncnc(Nc3ccc(F)c(Cl)c3)c2cc1O[C@H]1CC[C@H](NS(=O)(=O)N(C)C)CC1 | 9.00 |
| COc1cc2ncnc(Nc3ccc(F)c(Cl)c3)c2cc1O[C@H]1CCOC1 | 9.89 |
| COc1cc2ncnc(Nc3ccc(F)c(Cl)c3)c2cc1O[C@H]1CC[C@H](NC(=O)N2CCOCC2)CC1 | 9.52 |
| CC.COc1cc2ncnc(Nc3ccc(F)c(Cl)c3)c2cc1OC1CCN(S(=O)(=O)N2CCOCC2)CC1 | 10.00 |
| COc1cc2ncnc(Nc3ccc(F)c(Cl)c3)c2cc1O[C@H]1CC[C@H](NS(=O)(=O)N2CCOCC2)CC1 | 9.40 |

These compounds were tested against PIK3CG (human) (UniProt P48736) (assay: Enzyme Assay). Conditions: not given.

| SMILES | pIC50 |
| --- | --- |
| Nc1ncc(-c2cnc3ccc(-c4ccc(C(=O)N5CCN(Cc6ccccn6)CC5)cc4)nn23)cc1C(F)(F)F | 5.90 |

The compounds below were run against CDK2 (human) (UniProt P24941) (assay: Enzyme Assay). Conditions: not given.

| SMILES | pIC50 |
| --- | --- |
| Cc1ccnc(NS(=O)(=O)c2ccc(Nc3nc(C)c4c(=O)[nH]c(Nc5cccc(Cl)c5)nc4n3)cc2)n1 | 7.30 |
| Cc1ccnc(NS(=O)(=O)c2ccc(Nc3nc(C)c4c(=O)[nH]c(Nc5ccc(S(=O)(=O)O)cc5)nc4n3)cc2)n1 | < 5.00 |
